Test results: US20260191858A1, “COMBINATION THERAPIES” (Kallyope, Inc., priority 2022, published 2026)

Biological target: T1, human GPR119 (hGPR119) (Homo sapiens, UniProt Q8TDV5)
T1 construct: expressed in transfected cells; host or cells: CHO-K1
T1 sequence (Q8TDV5 1-335): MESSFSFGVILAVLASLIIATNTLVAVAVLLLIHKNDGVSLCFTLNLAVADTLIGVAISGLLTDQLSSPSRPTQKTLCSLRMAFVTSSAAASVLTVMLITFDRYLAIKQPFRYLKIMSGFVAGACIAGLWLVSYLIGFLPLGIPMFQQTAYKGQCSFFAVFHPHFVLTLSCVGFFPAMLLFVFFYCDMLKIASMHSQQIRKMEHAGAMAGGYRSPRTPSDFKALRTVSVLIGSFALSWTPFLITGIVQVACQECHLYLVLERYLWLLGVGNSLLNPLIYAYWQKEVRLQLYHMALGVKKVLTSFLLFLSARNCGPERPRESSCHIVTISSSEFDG
Assay: cAMP accumulation assay in CHO-K1 cells stably expressing hGPR119
Format: cell-based
Details: cAMP HTRF, 60 minutes
Experimental: CHO-K1 cells stably expressing human GPR119 (hGPR119) were prepared by transfection of a GPR119-carrying plasmid using Lipofectamine 2000 (following manufacturer instructions). A stable cell line was established using the limiting dilution method with geneticine selection. Assay-ready frozen (ARF) cells were prepared and used throughout the study.
The assay was performed in a 384-well plate format using the CAMP Gs dynamic assay kit from Cisbio. ARF cells expressing hGPR119 were thawed, washed and then resuspended in CAMP stimulation buffer at a cell density of 1.1×10^6 cells/mL. Cells were plated at a density of ~10,000 cells/well (9 μL/well). Dose response curves for the tested compounds were prepared in a cAMP stimulation buffer, containing 0.1% Tween 80 at 4 fold the final concentration. The compounds were then transferred to the cell plates using BRAVO (3 μL/well) and the plates were incubated for 60 minutes at 37° C./5% CO2. Detection buffer (10 μL, prepared as described in the CAMP Gs dynamic kit) were added to each well, and the plates were incubated at ambient temperature for 1 hr.
RT-FRET was measured using a ClarioSTAR plate reader, calculating the ratio between emissions at 665 nm and 620 nm (HTRF ratio). The HTRF ratio for positive (Max) and negative (Min) controls were used to normalize HTRF data and generate values for % activity. EC50 and Max activity values were determined using a standard 4-parameter fit.

For `CCOc1cnc(N2CCC(CCCOc3cc(F)c(CC(=O)N4CC(CNC[C@H](O)[C@@H](O)[C@H](O)[C@H](O)CO)C4)c(F)c3)CC2)nc1` [Compound A58, 2-[4-[3-[1-(5-ethoxypyrimidin-2-yl)-4-piperidyl]propoxy]-2,6-difluoro-phenyl]-1-[3-[[[(2S,3R,4R,5R)-2,3,4,5,6-pentahydroxyhexyl]amino]methyl]azetidin-1-yl]ethanone], the EC50 was ≤ 0.1 µM.

`COC(=O)c1cnc(N2CCC(CCCOc3ccc(CC(=O)N4CC(CNC[C@H](O)[C@@H](O)[C@H](O)[C@H](O)CO)C4)c(F)c3)CC2)nc1` [Compound A54, methyl 2-[4-[3-[3-fluoro-4-[2-oxo-2-[3-[[[(2S,3R,4R,5R)-2,3,4,5,6-pentahydroxyhexyl]amino]methyl]azetidin-1-yl]ethyl]phenoxy]propyl]-1-piperidyl]pyrimidine-5-carboxylate] was tested, and the EC50 was 0.1 to 1 µM.

Molecule `COCc1cnc(N2CCC(CCCOc3ccc(CC(=O)N4CC(CNC[C@H](O)[C@@H](O)[C@H](O)[C@H](O)CO)C4)c(F)c3)CC2)nc1` [Compound A53, 2-[2-fluoro-4-[3-[1-[5-(methoxymethyl)pyrimidin-2-yl]-4-piperidyl]propoxy]phenyl]-1-[3-[[[(2S,3R,4R,5R)-2,3,4,5,6-pentahydroxyhexyl]amino]methyl]azetidin-1-yl]ethanone] has an EC50 of 0.1 to 1 µM.

With `O=C(Cc1c(F)cc(OCCCC2CCN(c3ncc(Cl)cn3)CC2)cc1F)N1CC(CNC[C@H](O)[C@@H](O)[C@H](O)[C@H](O)CO)C1` [Compound A25, 2-[4-[3-[1-(5-chloropyrimidin-2-yl)-4-piperidyl]propoxy]-2,6-difluoro-phenyl]-1-[3-[[[(2S,3R,4R,5R)-2,3,4,5,6-pentahydroxyhexyl]amino]methyl]azetidin-1-yl]ethanone] the EC50 was ≤ 0.1 µM.

For `CCCc1cnc(N2CCC(CCCOc3ccc(CC(=O)N4CC(CNCC(CO)CO)C4)c(F)c3)CC2)nc1` [Compound A40, 2-(2-fluoro-4-(3-(1-(5-propylpyrimidin-2-yl)piperidin-4-yl)propoxy)phenyl)-1-(3-(((3-hydroxy-2-(hydroxymethyl)propyl)amino)methyl)azetidin-1-yl)ethan-1-one], the EC50 was ≤ 0.1 µM.

For `O=C(CC1CN(C(=O)Cc2c(F)cc(OCCCC3CCN(c4ncc(Cl)cn4)CC3)cc2F)C1)NCC(O)(CO)CO` [Compound A9, 2-[1-[2-[4-[3-[1-(5-chloropyrimidin-2-yl)-4-piperidyl]propoxy]-2,6-difluoro-phenyl]acetyl]azetidin-3-yl]-N-[2,3-dihydroxy-2-(hydroxymethyl)propyl]acetamide], the EC50 was ≤ 0.1 µM.

For “1-[2-[2-fluoro-4-[3-[1-[5- (methoxymethyl)pyrimidin-2-yl]-4- piperidyl]propoxy]phenyl]acetyl]-N-[2-[2- hydroxy-1,1- bis(hydroxymethyl)ethyl]carbamoylamino] ethyl]azetidine-3-carboxamide [Compound A2]”, the EC50 was 0.1 to 1 µM.

For `O=C(Cc1ccc(OCCCC2CCN(c3ncc(Cl)cn3)CC2)cc1F)N1CC(O)(CNC[C@H](O)[C@H](O)[C@H](O)CO)C1` [Compound A72, 2-[4-[3-[1-(5-chloropyrimidin-2-yl)-4-piperidyl]propoxy]-2-fluoro-phenyl]-1-[3-hydroxy-3-[[[(2S,3S,4R)-2,3,4,5-tetrahydroxypentyl]amino]methyl]azetidin-1-yl]ethanone], the EC50 was ≤ 0.1 µM.

In the case of `O=C(NCCCS(=O)(=O)O)C1CN(C(=O)Cc2ccc(OCCCC3CCN(c4ncc(Cl)cn4)CC3)cc2F)C1` [Compound A64, 3-[[1-[2-[4-[3-[1-(5-chloropyrimidin-2-yl)-4-piperidyl]propoxy]-2-fluoro-phenyl]acetyl]azetidine-3-carbonyl]amino]propane-1-sulfonic acid], the EC50 is reported as ≤ 0.1 µM.

`CCOc1cnc(N2CCC(CCCOc3ccc(CC(=O)N4CC(CC(=O)NCC(O)(CO)CO)C4)c(F)c3)CC2)nc1` [Compound A57, N-[2,3-dihydroxy-2-(hydroxymethyl)propyl]-2-[1-[2-[4-[3-[1-(5-ethoxypyrimidin-2-yl)-4-piperidyl]propoxy]-2-fluoro-phenyl]acetyl]azetidin-3-yl]acetamide] was tested, and the EC50 was ≤ 0.1 µM.

In the case of `O=C(CC1CN(C(=O)Cc2ccc(OCCCC3CCN(c4ncc(Cl)cn4)CC3)cc2F)C1)NCC(O)(CO)CO` [Compound A8, 2-[1-[2-[4-[3-[1-(5-chloropyrimidin-2-yl)-4-piperidyl]propoxy]-2-fluoro-phenyl]acetyl]azetidin-3-yl]-N-[2,3-dihydroxy-2-(hydroxymethyl)propyl]acetamide], the EC50 is reported as 0.1 to 1 µM.

In the case of `COc1cnc(N2CCC(CCCOc3ccc(CC(=O)N4CC(CNC[C@H](O)[C@@H](O)[C@H](O)[C@H](O)CO)C4)c(F)c3)CC2)nc1` (racemic) [Compound A49, 2-[2-fluoro-4-[3-[1-(5-methoxypyrimidin-2-yl)-4-piperidyl]propoxy]phenyl]-1-[3-[rac-(2S,3R,4R,5R)-2,3,4,5,6-pentahydroxyhexyl]amino]methyl]azetidin-1-yl]ethanone], the EC50 is reported as 0.1 to 1 µM.

With `O=C(Cc1ccc(OCCCC2CCN(c3ncc(Cl)cn3)CC2)cc1F)N1CC(CCNC(CO)CO)C1` [Compound A26, 2-(4-(3-(1-(5-chloropyrimidin-2-yl)piperidin-4-yl)propoxy)-2-fluorophenyl)-1-(3-(2-((1,3-dihydroxypropan-2-yl)amino)ethyl)azetidin-1-yl)ethan-1-one] the EC50 was ≤ 0.1 µM.

`CCc1cnc(N2CCC(CCCOc3ccc(CC(=O)N4CC(CNC(CO)(CO)CO)C4)c(F)c3)CC2)nc1` [Compound A34, 1-(3-(((1,3-dihydroxy-2-(hydroxymethyl)propan-2-yl)amino)methyl)azetidin-1-yl)-2-(4-(3-(1-(5-ethylpyrimidin-2-yl)piperidin-4-yl)propoxy)-2-fluorophenyl)ethan-1-one] was tested, and the EC50 was ≤ 0.1 µM.

Molecule `O=C(NCCO[C@H]1O[C@H](CO)[C@@H](O)[C@H](O)[C@@H]1O)C1CN(C(=O)Cc2ccc(OCCCC3CCN(c4ncc(Cl)cn4)CC3)cc2F)C1` (racemic) [Compound A6, 1-[2-[4-[3-[1-(5-chloropyrimidin-2-yl)-4-piperidyl]propoxy]-2-fluoro-phenyl]acetyl]-N-[2-[rac-(2S,3S,4S,5S,6R)-3,4,5-trihydroxy-6-(hydroxymethyl)tetrahydropyran-2-yl]oxyethyl]azetidine-3-carboxamide] has an EC50 of 0.1 to 1 µM.

`O=C(Cc1ccc(OCCCC2CCN(c3ncc(Cl)cn3)CC2)cc1F)N1CC(CCNCC(O)(CO)CO)C1` [Compound A28, 2-(4-(3-(1-(5-chloropyrimidin-2-yl)piperidin-4-yl)propoxy)-2-fluorophenyl)-1-(3-(2-((2,3-dihydroxy-2-(hydroxymethyl)propyl)amino)ethyl)azetidin-1-yl)ethan-1-one] was tested, and the EC50 was 0.1 to 1 µM.

`O=C(Cc1ccc(OCCCC2CCN(c3ncc(Cl)cn3)CC2)cc1F)N1CC(CCNC[C@H](O)[C@H](O)[C@H](O)CO)C1` [Compound A59, 2-[4-[3-[1-(5-chloropyrimidin-2-yl)-4-piperidyl]propoxy]-2-fluoro-phenyl]-1-[3-[2-[[(2S,3S,4R)-2,3,4,5-tetrahydroxypentyl]amino]ethyl]azetidin-1-yl]ethanone] was tested, and the EC50 was ≤ 0.1 µM.

In the case of `O=C(NC(CO)(CO)CO)C1CN(C(=O)Cc2ccc(OCCCC3CCN(c4ncc(Cl)cn4)CC3)cc2F)C1` [Compound A4, 1-[2-[4-[3-[1-(5-chloropyrimidin-2-yl)-4-piperidyl]propoxy]-2-fluoro-phenyl]acetyl]-N-[2-hydroxy-1,1-bis(hydroxymethyl)ethyl]azetidine-3-carboxamide], the EC50 is reported as ≤ 0.1 µM.
